From BindingDB's records for doi:10.1016/s0960-894x(99)00495-3 (Tokyo University of Pharmacy & Life Science, 1999)

Assay: Compound was evaluated for inhibition of PNP-catalyzed inosine […] in Cellulomonas sp

SMILES | IC50 [µM]
Nc1nc2c(ncn2CCCCC(F)(F)P(=O)(O)O)c(=O)[nH]1 [9-(5',5'-difluoro-5'-phosphonopentyl)guanine] | 0.54
O=c1[nH]cnc2c1ncn2CC[C@@H]1C[C@H]1C(F)(F)P(=O)(O)O [(Difluoro-{(1R,2S)-2-[2-(6-oxo-1,6-dihydro-purin-9-yl)-ethyl]-cyclopropyl}-methyl)-phosphonic acid] | 0.07
Nc1nc2c(ncn2CC[C@@H]2C[C@H]2C(F)(F)P(=O)(O)O)c(=O)[nH]1 [({(1R,2S)-2-[2-(2-Amino-6-oxo-1,6-dihydro-purin-9-yl)-ethyl]-cyclopropyl}-difluoro-methyl)-phosphonic acid] | 0.39
O=c1[nH]cnc2c1ncn2C[C@@H]1COC[C@@H]1CC(F)(F)P(=O)(O)O [{1,1-Difluoro-2-[(3R,4R)-4-(6-oxo-1,6-dihydro-purin-9-ylmethyl)-tetrahydro-furan-3-yl]-ethyl}-phosphonic acid] | 0.035
O=c1[nH]cnc2c1ncn2C[C@H]1COC[C@@H]1CC(F)(F)P(=O)(O)O [{1,1-Difluoro-2-[(3R,4S)-4-(6-oxo-1,6-dihydro-purin-9-ylmethyl)-tetrahydro-furan-3-yl]-ethyl}-phosphonic acid] | 0.037
